32 compounds from PubChem BioAssay AID686957 (The Scripps Research Institute Molecular Screening Center, 2013) can be followed below.

Calls of active or inactive are those of the source. The rule behind the calls is not given here.

The target of the experiment is T-cell receptor (TCR)-CD3 interaction, human (TCR alpha chain TRAV4). The experiment in a line: IC50 for blocking TCR-CD3 binding – biochemical, fluorescence, TAMRA-labeled TCR probe, dose response (AID 686957).

One may read the IC50 as the point on the concentration scale where inhibition reaches its midpoint. For the compound `Cc1c(CC(=O)N2CCN(C(=O)C3COc4ccccc4O3)CC2)c(=O)oc2c(O)c(O)ccc12` (configuration not stated), the IC50 was 6.03 µM. To `C=CCn1c(O)c(N=NC(=O)CNC(=O)/C=C/c2ccco2)c2ccccc21` belongs > 94.1 µM (inactive). To `O=C(NNC(=O)c1c(O)c2ccccc2[nH]c1=O)c1ccccc1` belongs > 94.1 µM (inactive). To `Cc1ccccc1C(=O)NNC(=S)NC(=O)c1cccnc1` belongs > 94.1 µM (inactive). As to `COc1ccc(C(=O)C=CNNC(=O)c2ccc(Cl)cc2)cc1`, the IC50 is > 94.1 µM (inactive). To `O=C1/C(=C/c2ccco2)SC(=S)N1c1cccnc1` belongs > 94.1 µM (inactive). As to `O=C(Nc1cccc(S(=O)(=O)NC2=NCCC2)c1)c1cc(-c2ccco2)nc2ccccc12`, the IC50 is > 94.1 µM (inactive). To `CCOC(=O)C1=C(CC)Nc2ccccc2N=C1NC(=O)Nc1ccc(Cl)c(Cl)c1` belongs “inactive”; to `O=[N+]([O-])c1ccc(O)c(/C=N/NC(=S)Nc2ccc(Cl)cc2Cl)c1`, > 94.1 µM (inactive).

On to `Oc1ccc(/C=N/Nc2ncnc3c2ncn3Cc2ccccc2)cc1O`, for which the IC50 is > 94.1 µM (inactive).

Turning to `C/C(=N\OCc1nc2ccccc2c(=O)n1/N=C/c1cc(C)cc([N+](=O)[O-])c1O)c1ccccc1`, the IC50 was > 94.1 µM (inactive).

For `Oc1c(Br)cc(Br)cc1/C=N/NC(=S)N[C@H]1CC2C=CC1C2` (some centres not stated), the IC50 was > 94.1 µM (inactive). Turning to `CCn1c(SCC(=O)c2ccc(O)c(O)c2)nnc1-c1ccccc1OC`, the IC50 was > 94.1 µM (inactive).

`CCOc1ccc(C(=O)CCC(=O)NNC(=O)c2ccccc2O)cc1`: the IC50 was > 94.1 µM (inactive).

For `Cc1ccccc1C(=O)Nc1cccc(C(=O)N/N=C/c2cc(Cl)cc([N+](=O)[O-])c2O)c1`, the IC50 was > 94.1 µM (inactive).

For the compound `O=C(CSc1nc2ccccc2c(=O)n1-c1ccc(F)c(Cl)c1)Nc1cccc(S(=O)(=O)N2CCOCC2)c1`, the IC50 was > 10.5 µM (inactive). Consider `O=c1cc(-c2ccc(O)cc2)oc2cc(O)c(C3OC(CO)C(O)C(O)C3O)c(O)c12` (configuration not stated), for which the IC50 was > 94.1 µM (inactive). On to `Cc1nc2ccccc2n1CC(=O)c1ccc(O)c(O)c1`, for which the IC50 is > 94 µM (inactive).

Regarding `Cc1ccc(C(=O)NNC(=O)c2ccc3ccccc3c2O)cc1`, the IC50 was > 94 µM (inactive).

Regarding `CNC(=S)N/N=C/c1cc(Br)cc(Br)c1O`, the IC50 was > 94.1 µM (inactive). To `Cc1ccc(/C=C2\SC(=S)N(CCCC(=O)NNC(=O)c3ccccc3O)C2=O)cc1` belongs > 94.1 µM (inactive); to `COc1ccc2nc(C)cc(SCC(=O)N/N=C/c3ccc(O)c(O)c3)c2c1`, > 94.1 µM (inactive); to `Nc1c(C(=O)NCC2CCCO2)sc2nc3c(c(-c4ccco4)c12)CC/C3=C\c1ccco1` (configuration not stated), “inactive”. To `O=C(CSc1nnc(-c2ccccc2)n1Cc1ccccc1)NNC(=O)c1ccccc1O` belongs > 94.1 µM (inactive); to `Cc1onc(-c2ccccc2)c1C(=O)NN=Cc1cc(Cl)cc(Cl)c1O`, > 94 µM (inactive). To `Cc1ccc(-n2c(O)c(/C=N/NC(=O)C3COc4ccccc4O3)c3ccccc3c2=O)cc1` (configuration not stated) belongs > 94.1 µM (inactive). With `Cn1c(=O)c(C(=O)NNC(=O)c2ccccc2F)c(O)c2ccccc21`, the IC50 is > 94.1 µM (inactive). To `COc1cccc(/C=C2/SC(=S)N(CC(=O)NNC(=O)c3ccccc3O)C2=O)c1` belongs > 94.1 µM (inactive).

As for `Cc1ccc2nc(-c3ccc(O)c(O)c3)cn2c1`, the IC50 was > 94.1 µM (inactive). Turning to `CC(=O)c1cccc(NC(=O)C(OC(=O)c2cccc(S(=O)(=O)N(C)c3ccccc3)c2)c2ccccc2)c1` (configuration not stated), the IC50 entry was “inactive”. To `CCC1=NN(C(=O)c2cccc([N+](=O)[O-])c2)C(O)(c2ccc(C)cc2)C1` (configuration not stated) belongs > 94.1 µM (inactive); to `C/C(=N\NC(=O)c1nnn(-c2nonc2N)c1-c1ccccc1)c1ccccc1O`, > 94.1 µM (inactive).
